Test results taken from patent US7129244B2, “Triazolopyrimidines and related analogs as HSP90-inhibitors” (Conforma Therapeutics Corporation, priority 2003, dated 2006).

Experiments:
HER2/Neu protein = experiment: HER2 Degradation Assay; type: cell-based; settings: Homo sapiens, MCF7, 16 h, MCF7 breast carcinoma cells, 16 h incubation; concentration at which there was 50% degradation of the HER2/Neu protein
Procedure: MCF7 breast carcinoma cells (ATCC) were grown in Dulbecco's modified Eagle's medium (DMEM) containing 10% fetal bovine serum (FBS) and 10 mM HEPES, and plated in 24 well plates (50% confluent). Twenty-four hrs later (cells are 65–70% confluent), test compounds were added and incubated overnight for 16 h. […] The wells were washed with 1 mL phosphate buffered saline (PBS), and 200 μL trypsin was added to each well. After trypsinization was complete, 50 μL of FBS was added to each well. Then 200 μL cells was transferred to 96 well plates. The cells were pipetted up and down to obtain a single cell suspension. The plates were centrifuged at 2,500 rpm for 1 min using a Sorvall Legend RT™ tabletop centrifuge (Kendro Laboratory Products, Asheville, N.C.). The cells were then washed once in PBS containing 0.2% BSA and 0.2% sodium azide (BA buffer). Phycoerythrin (PE) conjugated anti HER2/Neu antibody (Becton Dickinson, #340552), or PE conjugated anti-keyhole limpet hemacyanin [KLH] (Becton Dickinson, #340761) control antibody was added at a dilution of 1:20 and 1:40 respectively (final concentration was 1 μg/mL) and the cells were pipeted up and down to form a single cell suspension, and incubated for 15 mins. The cells were washed twice with 200 μL BA buffer, and resuspended in 200 μL BA buffer, and transferred to FACSCAN tubes with an additional 250 μL BA buffer. Samples were analyzed using a FACSCalibur™ flow cytometer (Becton Dickinson, San Jose, Calif.) equipped with Argon-ion laser that emits 15 mW of 488 nm light for excitation of the PE fluorochrome. 10,000 events were collected per sample. A fluorescence histogram was generated and the mean fluorescence intensity (MFI) of each sample was determined using Cellquest software. The background was defined as the MFI generated from cells incubated with control IgG-PE, and was subtracted from each sample stained with the HER2/Neu antibody. Cells incubated with DMSO was always done as untreated controls since the compounds were resuspended in DMSO. Percent degradation of HER2 was calculated as follows: % HER2 degraded=[(MFl untreated cells−MFl treated cells)/MFl untreated cell]×100
IC50 is defined as the concentration at which there was 50% degradation of the HER2/Neu protein.

[1] = tested on: MCF7 breast carcinoma cells; experiment: MTS Assay; type: cell-based; settings: Homo sapiens, concentration giving 50% viable cell number
Procedure: MTS assays measures the cytotoxicity of geldanamycin derivatives. MTS (3-(4,5-dimethylthiazol-2-yl)-5-(3-carboxymethoxyphenyl)-2-(4-sulfophenyl)-2H-tetrazolium is a tetrazolium dye that is converted to a formazan product by dehydrogenase enzymes of metabolically active cells (Corey, A. et al. “Use of an aqueous soluble tetrazolium/formazan assay for cell growth assays in culture,” Cancer Commun. 1991, 3, 207–212). Cells were seeded in 96 well plates at 2000 cells/well and allowed to adhere overnight in Dulbecco's modified Eagle's medium supplemented with 10% fetal bovine serum. The final culture volume was 100 μl. Viable cell number was determined by using the Celltiter 96 AQueous Non-radioactive Cell Proliferation Assay (Promega, Madison Wis.). The MTS/PMS (phenazine methosulfate) solution was mixed at a ratio of 20:1, and 20 μL was added per well to 100 μl of culture medium. After 2–4 hours, the formation of the formazan product was measured at 490 nm absorbance using a multiwell plate spectrophotometer. Background was determined by measuring the Abs 490 nm of cell culture medium and MTS-PMS in the absence of cells and was subtracted from all values. Percent viable cells was calculated as follows: % viable cells=(Abs at 490 nm treated cells/Abs at 490 nm untreated cells)×100 […]

IC50 (HER2/Neu protein) [µM]	IC50 [1] [µM]	Compound
8.5		COc1cc(Cn2nnc3c(Cl)nc(N)nc32)c(Cl)c(OC)c1 [Example 12, 7-chloro-3-(2-chloro-3,5-dimethoxy-benzyl)-3H-[1,2,3]triazolo[4,5-d]pyrimidin-5-ylamine]
6.3		COc1c(Br)c(Cn2nnc3c(Cl)nc(N)nc32)c(Br)c(OC)c1OC [Example 9, 7-Chloro-3-(2,6-dibromo-3,4,5-trimethoxy-benzyl)-3H-[1,2,3]triazolo[4,5-d]pyrimidin-5-ylamine]
0.4	8	COc1c(C)cnc(Cn2nnc3c(Cl)nc(N)nc32)c1C [Example 1, 7-chloro-3-(4-methoxy-3,5-dimethyl-pyridin-2-ylmethyl)-3H-[1,2,3]triazolo[4,5-d]pyrimidin-5-ylamine]
12		COc1cc(Cn2nnc3c(Cl)nc(N)nc32)c(Cl)c(OC)c1OC [Example 6, 7-chloro-3-(2-chloro-3,4,5-trimethoxy-benzyl)-3H-[1,2,3]triazolo[4,5-d]pyrimidin-5-ylamine]
10		COc1cc(Cn2nnc3c(Cl)nc(N)nc32)c(I)c(OC)c1OC [Example 10, 7-chloro-3-(2-iodo-3,4,5-trimethoxy-benzyl)-3H-[1,2,3]triazolo [4,5-d]pyrimidin-5-ylamine]
19		COc1cc(Cl)c(OC)c(Cn2nnc3c(Cl)nc(N)nc32)c1 [Example 17, 7-chloro-3-(3-chloro-2,5-dimethoxy-benzyl)-3H-[1,2,3]triazolo[4,5-d]pyrimidin-5-ylamine]
22		COc1cc(Cn2nnc3c(Cl)nc(N)nc32)c(OC)cc1Br [Example 16, 7-chloro-3-(4-bromo-2,5-dimethoxy-benzyl)-3H-[1,2,3]triazolo[4,5-d]pyrimidin-5-ylamine]
6.5		COc1cc(Cn2nnc3c(Cl)nc(N)nc32)c(Br)c(OC)c1OC [Example 8, 7-chloro-3-(2-bromo-3,4,5-trimethoxy-benzyl)-3H-[1,2,3]triazolo[4,5-d]pyrimidin-5-ylamine]
16		COc1cc(Cn2nnc3c(Cl)nc(N)nc32)c(Br)c(OC)c1 [Example 13, 7-chloro-3-(2-bromo-3,5-dimethoxy-benzyl)-3H-[1,2,3]triazolo[4,5-d]pyrimidin-5-ylamine]
4		COc1c(Cl)c(Cn2nnc3c(Cl)nc(N)nc32)c(Cl)c(OC)c1OC [Example 7, 7-Chloro-3-(2,6-dichloro-3,4,5-trimethoxy-benzyl)-3H-[1,2,3]triazolo[4,5-d]pyrimidin-5-ylamine]
15		COc1cc(Cn2nnc3c(Cl)nc(N)nc32)cc(OC)c1OC [Example 5, 7-chloro-3-(3,4,5-trimethoxy-benzyl)-3H-[1,2,3]triazolo[4,5-d]pyrimidin-5-ylamine]
